In patent publication US20260069728A1, “MULTI-TARGETING COMPOUND AND USE THEREOF” (Chengdu Shetai Medical Technology Co., Ltd., priority 2023, published 2026):
Where two headings read alike, the source gives them in different places.

Legend:
[1] = Isoelectric point (PI) measurement; format: physicochemical; details: unlabeled compound
[2] = system: HUTU-80 human duodenal adenocarcinoma cell line; assay: Cell uptake and inhibition assay, HUTU-80; format: cell-based
Procedure: The cell lines involved in the cell experiments in the test examples include: SUM149PT human breast cancer cell line, HUTU-80 human duodenal adenocarcinoma cell line, and U-118 MG human brain astrocytoma/glioblastoma cell line.
HUTU-80: Complete medium was formulated using DMEM high-glucose medium, 10% FBS, and a penicillin-streptomycin solution. The cells were cultured in a constant temperature incubator at 37° C. with 5% CO2. The culture medium was regularly replaced, and the cells were passaged. The culture medium was generally changed every 2 to 3 days. The growth of the tumor cells was observed daily under a microscope, including monitoring cell growth status, checking for adherence, examining cell morphology for any abnormalities, checking for contamination, and observing medium color for any abnormalities. Cells were passaged when they reached 80-90% confluence.
When cell confluence in the culture flask reached 80%, the cells were digested and centrifuged, and the supernatant was removed. An appropriate amount of medium was added to dilute so that each well contained 500 μL of medium for plating. After thorough mixing by pipetting, the cell suspension was seeded into a 24-well plate at a density of 5×10^5 cells per well. The plate was then placed into the incubator for continued growth. The cells were ready for cellular experiments when they reached 80% confluence.
(1) The cell uptake assay established four incubation time points: 15, 30, 60, and 120 minutes, respectively. For each time point, four groups were set up: non-inhibition group, a first single inhibition group (FAP single inhibition), a second single inhibition group (CXCR4/GRPR/αvβ3 single inhibition), and a dual inhibition group (FAP inhibitor+CXCR4/GRPR/αvβ3 inhibitor). Each group at each time point was set up with 3 triplicate wells.
(§1) (2) Cells were plated into a 24-well plate according to the cell plating procedure described above.
(3) The original culture medium was removed from the 24-well plate. Then, 400 μL of 100 mg/mL skimmed milk solution was added to each well for blocking for one hour. After removing the skimmed milk solution, each of the wells was washed three times by adding 400 μL of PBS solution. Subsequently, 146 μL of FBS-free medium was added to each well. […]
(6) The radioactivity in the cells was measured using a γ counter. […]

[3] = system: HUTU-80 human duodenal adenocarcinoma cell line; assay: Cell saturation binding assay, HUTU-80; details: 68Ga-labeled compound
Procedure: (1) For the cell saturation binding assay, a total of 8 radiolabeled ligand concentrations were set at intervals within the anticipated range. For each concentration, there were 3 groups: the non-inhibition group, the first single inhibition group (FAP single inhibition group), and the second single inhibition group (CXCR4/GRPR/αvβ3 single inhibition group). For each concentration and each group, 3 replicate wells were established.
as §1
(3) The original culture medium was removed from the 24-well plate. Then, 400 μL of 100 mg/mL skimmed milk solution was added to each well for blocking for one hour. After removing the skimmed milk solution, each of wells was washed three times by adding 400 μL of PBS solution. Subsequently, 146 μL of FBS-free medium was added to each well. Next, the non-inhibition group received 4 μL of cold PBS per well, while the first single inhibition group and the second single inhibition group received the following additions per well according to Table 4: 2 μL of non-radiolabeled first single inhibitor solution and 2 μL of cold PBS; 2 μL of non-radiolabeled second single inhibitor solution and 2 μL of cold PBS. The plate was then incubated at room temperature for one hour.
(4) The ligands were radiolabeled with 68Ga using the labeling method described previously. Different volumes of FBS-free medium were added to formulate the radioligand systems at corresponding concentrations. Then, 50 μL of the corresponding concentration of the radioligand system was added to each well.
(5) The supernatant was removed, and the wells were washed three times with 400 μL of PBS. 200 μL of IM NaOH solution was added to each well for cell lysis. […] Each well was washed once with 400 μL of PBS solution, and the washings were sequentially added to the corresponding radioimmunoassay tubes.
(6) Radioactivity in the cells was measured using a γ counter. The equilibrium dissociation constant (KD) was obtained by fitting the curve using nonlinear regression analysis in GraphPad Prism software. KD is the drug concentration that causes half of the maximum effect (50% receptor occupancy).

SMILES: CC(C)CC(CC(C)C)NC(=O)[C@H](Cc1cnc[nH]1)NC(=O)CNC(=O)C(NC(=O)[C@H](C)NC(=O)[C@H](Cc1c[nH]c2ccccc12)NC(=O)[C@H](CCC(N)=O)NC(=O)[C@@H](Cc1ccccc1)NC(=O)COCC(=O)Nc1ccc(CNC(=O)COCCOCCNC(=O)COCCOCCNC(=O)[C@H](CCCCNC(=O)CN2CCN(CC(=O)O)CCN(CC(=O)O)CCN(CC(=O)O)CC2)NC(=O)CCC(=O)N2CCN(CCCOc3ccc4nccc(C(=O)NCC(=O)N5CC(F)(F)C[C@H]5C#N)c4c3)CC2)cc1)C(C)C (stereo partly drawn) [SDYD03]
- PI range of series of peaks [1]: 5.992-7.095
- cell uptake over incubation time (in words) ([2]; 15-120 minutes): increased slowly and reached a plateau from 15 to 120 minutes
- cell uptake, comparison of non-inhibition, FAP single, GRPR single and dual inhibition groups (in words) ([2]; FAPI-04 and BBN as inhibitors): cell uptake in the non-inhibition group was consistently higher than that in the other three groups
- inhibition rate, comparison of inhibition groups (in words) ([2]; FAPI-04 and BBN as inhibitors): inhibition rate of the dual inhibition group was higher than that of the FAP single inhibition group and the GRPR single inhibition group
- specific binding to FAP and GRPR (in words) ([2]; conclusion from inhibition groups): can specifically bind to both FAP and GRPR
- KD values / binding affinity to the receptors (in words) [3]: relatively low KD values
- Kd ([3]; BBN solution (GRPR inhibitor), read-out: KD value, Second single inhibition group (CXCR4/GRPR/αvβ3 single inhibition)): 1.76 ± 0.224 nM
- Kd ([3]; FAPI-04 solution, read-out: KD value, First single inhibition group (FAP single inhibition)): 0.884 ± 0.152 nM
- Kd ([3]; read-out: KD value, Non-inhibition group): 1.23 ± 0.331 nM
